This experiment has as its target Nluc-H1R (Homo sapiens, UniProt P35367). The experiment is described as follows: NanoBRET competition binding assay (displacement of 1) on Nluc-H1R expressing HEK293T cells. Particulars: displacement of 1 (25 nM, KD = 8 nM), whole HEK293T cells, Cheng–Prusoff; for pKi: mean ± SEM, three experiments. A general note: BRET reads energy transfer from a luciferase to a nearby fluorophore.

Square brackets hold non-standard residues; d marks the D form. Peptide text beside a SMILES is read from it. * marks the point of attachment. Propanoyl(3-Pip(4-O-2-BnPh)) = O=C(CCN1CCC(Oc2ccccc2Cc2ccccc2)CC1)*

Sequence of Nluc-H1R (P35367 whole entry): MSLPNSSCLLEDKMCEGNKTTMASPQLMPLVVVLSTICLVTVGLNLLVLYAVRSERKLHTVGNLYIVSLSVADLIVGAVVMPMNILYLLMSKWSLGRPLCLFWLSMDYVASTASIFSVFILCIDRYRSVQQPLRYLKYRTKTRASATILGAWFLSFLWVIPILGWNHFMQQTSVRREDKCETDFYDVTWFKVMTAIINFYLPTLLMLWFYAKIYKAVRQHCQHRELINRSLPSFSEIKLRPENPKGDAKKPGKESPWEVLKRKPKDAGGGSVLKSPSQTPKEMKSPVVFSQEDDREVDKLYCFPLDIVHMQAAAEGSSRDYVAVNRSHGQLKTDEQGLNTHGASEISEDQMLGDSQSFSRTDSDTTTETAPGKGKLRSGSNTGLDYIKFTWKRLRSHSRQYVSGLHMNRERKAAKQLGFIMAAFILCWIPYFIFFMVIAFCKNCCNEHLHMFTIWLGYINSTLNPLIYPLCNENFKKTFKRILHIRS

The Ki is the equilibrium dissociation constant of an inhibitor or competing ligand from its target. High values mean lower affinity, low ones higher affinity. By pKi is commonly meant the Ki on a negative log10 scale, so that one unit is a factor of ten. Read a high pKi as a low Ki. The compound `C[C@H](NC(=O)CCN1CCC(Oc2ccccc2Cc2ccccc2)CC1)C(=O)N[C@@H](C)C(=O)N[C@@H](C)C(=O)N[C@H](Cc1ccccc1)C(N)=O` [Compound 8a, (S)-N-((R)-1-Amino-1-oxo-3-phenylpropan-2-yl)-2-((S)-2-((S)-2-(3-(4-(2-benzylphenoxy)piperidin-1-yl)-propana-mido)propanamido)propanamido)propanamide] ({Propanoyl(3-Pip(4-O-2-BnPh))}-AAA[dF]-NH2) displayed a Ki of 912 nM and a pKi of 6.04 ± 0.16.

`C[C@H](NC(=O)CNC(=O)CCN1CCC(Oc2ccccc2Cc2ccccc2)CC1)C(=O)N[C@@H](C)C(=O)N[C@H](Cc1ccccc1)C(N)=O` [Compound 8b, (S)-N-((R)-1-Amino-1-oxo-3-phenylpropan-2-yl)-2-((S)-2-(2-(3-(4-(2-benzylphenoxy)piperidin-1-yl)propanamido)acetamido)propanamido)propanamide] ({Propanoyl(3-Pip(4-O-2-BnPh))}-GAA[dF]-NH2) returned a Ki of 513 nM and a pKi of 6.29 ± 0.21.

`CC(C)[C@H](NC(=O)CCN1CCC(Oc2ccccc2Cc2ccccc2)CC1)C(=O)N[C@@H](C)C(=O)N[C@@H](C)C(=O)N[C@H](Cc1ccccc1)C(N)=O` [Compound 8c, (S)-N-((S)-1-(((S)-1-(((R)-1-Amino-1-oxo-3-phenylpropan-2-yl)amino)-1-oxopropan-2-yl)amino)-1-oxopropan-2-yl)-2-(3-(4-(2-benzylphenoxy)piperidin-1-yl)propanamido)-3-methylbutanamide] ({Propanoyl(3-Pip(4-O-2-BnPh))}-VAA[dF]-NH2) registered a Ki of 158 nM and a pKi of 6.80 ± 0.12.

For the compound `C[C@H](NC(=O)[C@H](C)NC(=O)[C@H](Cc1ccccc1)NC(=O)CCN1CCC(Oc2ccccc2Cc2ccccc2)CC1)C(=O)N[C@H](Cc1ccccc1)C(N)=O` [Compound 8d, (S)-N-((S)-1-(((S)-1-(((R)-1-Amino-1-oxo-3-phenylpropan-2-yl)amino)-1-oxopropan-2-yl)amino)-1-oxopropan-2-yl)-2-(3-(4-(2-benzylphenoxy)piperidin-1-yl)propanamido)-3-phenylpropanamide] ({Propanoyl(3-Pip(4-O-2-BnPh))}-FAA[dF]-NH2), the Ki came out at 1320 nM and the pKi turned out to be 5.88 ± 0.21.

Consider `C[C@H](NC(=O)[C@H](C)NC(=O)[C@H](Cc1ccc(O)cc1)NC(=O)CCN1CCC(Oc2ccccc2Cc2ccccc2)CC1)C(=O)N[C@H](Cc1ccccc1)C(N)=O` [Compound 8e, (S)-N-((S)-1-(((S)-1-(((R)-1-Amino-1-oxo-3-phenylpropan-2-yl)amino)-1-oxopropan-2-yl)amino)-1-oxopropan-2-yl)-2-(3-(4-(2-benzylphenoxy)piperidin-1-yl)propanamido)-3-(4-hydroxyphenyl)propanamide] ({Propanoyl(3-Pip(4-O-2-BnPh))}-YAA[dF]-NH2), for which the affinity corresponds to a Ki of 1180 nM and the pKi is reported as 5.93 ± 0.17.

For `C[C@H](NC(=O)[C@H](C)NC(=O)[C@H](CO)NC(=O)CCN1CCC(Oc2ccccc2Cc2ccccc2)CC1)C(=O)N[C@H](Cc1ccccc1)C(N)=O` [Compound 8f, (S)-N-((S)-1-(((S)-1-(((R)-1-Amino-1-oxo-3-phenylpropan-2-yl)amino)-1-oxopropan-2-yl)amino)-1-oxopropan-2-yl)-2-(3-(4-(2-benzylphenoxy)piperidin-1-yl)propanamido)-3-hydroxypropanamide] ({Propanoyl(3-Pip(4-O-2-BnPh))}-SAA[dF]-NH2), the Ki turned out to be 407 nM and the pKi is on record as 6.39 ± 0.15.

As to `C[C@H](NC(=O)[C@H](C)NC(=O)[C@H](CC(N)=O)NC(=O)CCN1CCC(Oc2ccccc2Cc2ccccc2)CC1)C(=O)N[C@H](Cc1ccccc1)C(N)=O` [Compound 8g, (S)-N-((S)-1-(((S)-1-(((R)-1-Amino-1-oxo-3-phenylpropan-2-yl)amino)-1-oxopropan-2-yl)amino)-1-oxopropan-2-yl)-2-(3-(4-(2-benzylphenoxy)piperidin-1-yl)-propanamido)succinamide] ({Propanoyl(3-Pip(4-O-2-BnPh))}-NAA[dF]-NH2), the inhibition constant (Ki) was determined as 562 nM and the pKi is on record as 6.25 ± 0.20.

In turn, `C[C@H](NC(=O)[C@H](C)NC(=O)[C@H](Cc1cnc[nH]1)NC(=O)CCN1CCC(Oc2ccccc2Cc2ccccc2)CC1)C(=O)N[C@H](Cc1ccccc1)C(N)=O` [Compound 8h, (S)-N-((S)-1-(((S)-1-(((R)-1-Amino-1-oxo-3-phenylpropan-2-yl)amino)-1-oxopropan-2-yl)amino)-1-oxopropan-2-yl)-2-(3-(4-(2-benzylphenoxy)piperidin-1-yl)propanamido)-3-(1H-imidazol-5-yl)propanamide] ({Propanoyl(3-Pip(4-O-2-BnPh))}-HAA[dF]-NH2) had a Ki of 933 nM and a pKi of 6.03 ± 0.13.

`C[C@H](NC(=O)[C@H](C)NC(=O)[C@H](CCCCN)NC(=O)CCN1CCC(Oc2ccccc2Cc2ccccc2)CC1)C(=O)N[C@H](Cc1ccccc1)C(N)=O` [Compound 8i, (S)-6-Amino-N-((S)-1-(((S)-1-(((R)-1-amino-1-oxo-3-phenylpropan-2-yl)amino)-1-oxopropan-2-yl)-amino)-1-oxopropan-2-yl)-2-(3-(4-(2-benzylphenoxy)piperidin-1-yl)-propanamido)hexanamide] ({Propanoyl(3-Pip(4-O-2-BnPh))}-KAA[dF]-NH2) had a Ki of 1620 nM and a negative-log Ki (pKi) of 5.79 ± 0.18.

On to `C[C@H](NC(=O)[C@H](C)NC(=O)[C@H](CC(=O)O)NC(=O)CCN1CCC(Oc2ccccc2Cc2ccccc2)CC1)C(=O)N[C@H](Cc1ccccc1)C(N)=O` [Compound 8j, (S)-4-(((S)-1-(((S)-1-(((R)-1-Amino-1-oxo-3-phenylpropan-2-yl)amino)-1-oxopropan-2-yl)amino)-1-oxopropan-2-yl)amino)-3-(3-(4-(2-benzylphenoxy)piperidin-1-yl)propanamido)-4-oxobutanoic Acid] ({Propanoyl(3-Pip(4-O-2-BnPh))}-DAA[dF]-NH2), for which the Ki was determined as 1020 nM and the pKi is 5.99 ± 0.24.

Compound `CC(C)[C@H](NC(=O)CCN1CCC(Oc2ccccc2Cc2ccccc2)CC1)C(=O)NCC(=O)N[C@@H](C)C(=O)N[C@H](Cc1ccccc1)C(N)=O` [Compound 9a, (S)-N-(2-(((S)-1-(((R)-1-Amino-1-oxo-3-phenylpropan-2-yl)amino)-1-oxopropan-2-yl)amino)-2-oxoethyl)-2-(3-(4-(2-benzylphenoxy)piperidin-1-yl)propanamido)-3-methylbutanamide] ({Propanoyl(3-Pip(4-O-2-BnPh))}-VGA[dF]-NH2) returned a Ki of 501 nM and a pKi of 6.30 ± 0.07.

Regarding `CC(C)[C@H](NC(=O)CCN1CCC(Oc2ccccc2Cc2ccccc2)CC1)C(=O)N[C@H](C(=O)N[C@@H](C)C(=O)N[C@H](Cc1ccccc1)C(N)=O)C(C)C` [Compound 9b, (S)-N-((S)-1-(((R)-1-Amino-1-oxo-3-phenylpropan-2-yl)amino)-1-oxopropan-2-yl)-2-((S)-2-(3-(4-(2-benzylphenoxy)piperidin-1-yl)propanamido)-3-methylbutanamido)-3-methylbutanamide] ({Propanoyl(3-Pip(4-O-2-BnPh))}-VVA[dF]-NH2), the affinity, expressed as Ki, was 372 nM and the pKi is reported as 6.43 ± 0.06.

These data come from publication PMC9234962, “Optimization of Peptide Linker-Based Fluorescent Ligands for the Histamine H1 Receptor” (Journal of Medicinal Chemistry, 2022).
